pIC50: −log10 of the molar value.
Legend:
MCF7 = test: CCK-8 proliferation, MCF7 (MCF-7); assay type: cell-based; details: Homo sapiens, MCF7; CCK-8; read-out: Inhibitory activity (IC50) on tumor cell proliferation, MCF7
In short: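 Tumor cells were cultured at 37°C with 5% CO2, seeded, and after 24h treated with compounds at 10 concentrations starting at 10µM (5-fold serial dilutions).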

CDK4 = target: T1, CDK4 (Homo sapiens, UniProt P11802); test: Western blot degradation of CDK4 (MDA-MB-231 Cell); assay type: cell-based; details: Table D3
T1 construct: evaluate the effects of the compounds of the present disclosure on the expression of target proteins in cells; endogenous in cells; host or cells: MDA-MB-231
T1 sequence (P11802 whole entry): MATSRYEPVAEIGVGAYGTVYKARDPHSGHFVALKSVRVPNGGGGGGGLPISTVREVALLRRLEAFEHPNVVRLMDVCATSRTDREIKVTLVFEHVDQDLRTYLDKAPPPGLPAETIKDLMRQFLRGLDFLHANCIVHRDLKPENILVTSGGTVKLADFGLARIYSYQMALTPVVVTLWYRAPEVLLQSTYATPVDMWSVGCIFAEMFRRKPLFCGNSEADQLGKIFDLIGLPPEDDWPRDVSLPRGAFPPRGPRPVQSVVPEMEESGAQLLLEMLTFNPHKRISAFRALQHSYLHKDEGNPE
Procedure: (§1) Conventional Western blot assay was performed to evaluate the effects of the compounds of the present disclosure on the expression of target proteins in cells.
(§2) (1) Cell Seeding and Protein Harvesting: The selected cells were processed according to the cell seeding procedure and protein harvesting procedure in Table III-2. Table III-2 Cell Seeding and Protein Harvesting Procedures
(§3) (2) To the collected supernatant, 5X SDS sample loading buffer was added, followed by denaturation at 95°C for 5 minutes. The denatured samples were then separated by SDS-PAGE electrophoresis on a polyacrylamide gel. Proteins were transferred to a nitrocellulose membrane (0.45 µm NC membrane), blocked with blocking buffer at room temperature for 1 hour, and subjected to antibody incubation and development procedures according to the antibody manufacturer's instructions (Cell Signaling Technology).
(§4) Half-Maximal Degradation Concentration value (the drug concentration required for degrading proteins by 50%, abbreviated as DC50) reads method: comparing the grayscale values of Western blot bands from drug-treated samples with those from blank DMSO-treated controls, and identifying the drug concentration range at which the grayscale value is half that of the DMSO-treated control bands.
(§5) DC50 values can be calculated using ImageJ software to measure grayscale values of Western blot bands from drug-treated samples. The concentration-response curve is fitted to estimate the drug concentration corresponding to half the grayscale value.
(§6) Target protein remaining (%) refers to the percentage of target protein remaining in hPBMC cells after treatment with protein degrader compounds.
(§7) Calculation method for target protein remaining (%): Use ImageJ software to measure grayscale values of Western blot bands from drug (protein degrader)-treated samples. The grayscale value of drug-treated bands is divided by that of internal control protein bands, and the resulting quotient is normalized to obtain the relative percentage of remaining target protein after protein degrader treatment.
(§8) Target protein degradation rate (%) = 100% - target protein remaining (%).

CDK6 = target: T2, CDK6 (Homo sapiens, UniProt Q00534); test: Western blot degradation of CDK6 (MDA-MB-231 Cell); assay type: cell-based; details: Table D3
T2 construct: evaluate the effects of the compounds of the present disclosure on the expression of target proteins in cells; endogenous in cells; host or cells: MDA-MB-231
T2 sequence (Q00534 whole entry): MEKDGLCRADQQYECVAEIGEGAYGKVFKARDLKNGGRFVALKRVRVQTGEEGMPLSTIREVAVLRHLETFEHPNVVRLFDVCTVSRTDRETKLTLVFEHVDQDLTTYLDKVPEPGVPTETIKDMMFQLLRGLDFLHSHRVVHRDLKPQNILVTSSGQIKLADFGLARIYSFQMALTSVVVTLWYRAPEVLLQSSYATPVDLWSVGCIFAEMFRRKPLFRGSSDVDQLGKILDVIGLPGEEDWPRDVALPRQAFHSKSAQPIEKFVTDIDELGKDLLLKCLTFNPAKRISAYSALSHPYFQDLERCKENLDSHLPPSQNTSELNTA
Procedure: as §1, §2, §3, §4, §5, §6, §7, §8

[1] = target: T3, human Cereblon WT GST-tagged protein (Homo sapiens, UniProt Q96SW2); test: CRBN binding, HTRF (CEREBLON BINDING kit); details: Table II-2, CRBN binding screening, HTRF; for inhibition at 0.5 µM: read-out: Inhibition rate (%) at 0.5µM; for inhibition at 2 µM: read-out: Inhibition rate (%) at 2 µM
T3 construct: purchased CISBIO 64BDCRBNPEH
T3 sequence (Q96SW2 whole entry): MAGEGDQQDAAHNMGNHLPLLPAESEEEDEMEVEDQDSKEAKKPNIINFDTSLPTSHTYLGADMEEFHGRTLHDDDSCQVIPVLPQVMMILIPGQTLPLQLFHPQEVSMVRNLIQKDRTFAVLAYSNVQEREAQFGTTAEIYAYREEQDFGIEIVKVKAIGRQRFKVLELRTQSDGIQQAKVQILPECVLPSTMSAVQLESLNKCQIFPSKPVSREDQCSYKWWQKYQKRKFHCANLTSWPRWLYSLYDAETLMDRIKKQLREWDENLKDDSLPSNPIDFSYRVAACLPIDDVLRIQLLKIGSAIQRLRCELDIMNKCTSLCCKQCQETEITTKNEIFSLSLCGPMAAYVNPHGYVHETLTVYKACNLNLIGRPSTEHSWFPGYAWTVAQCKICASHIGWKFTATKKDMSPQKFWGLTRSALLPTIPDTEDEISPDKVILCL
In short: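 Competitive HTRF: GST-tagged human WT Cereblon mixed with compound, Thalidomide-Re tracer and GST Eu antibody, incubated 3 h at room temperature. Signals read at 620 and 665 nm.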

CCRF-CEM = test: CCK-8 proliferation, CCRF-CEM; assay type: cell-based, Human; details: Homo sapiens, CCRF-CEM; CCK-8; 96 hours; read-out: Inhibitory activity (IC50) on tumor cell proliferation, CCRF-CEM
Procedure: The tumor cells used herein were cultured in a cell culture medium listed in table A1 at 37°C in an incubator with 5% CO2. Prior to experimentation, all cell lines used were correctly identified by STR profiling, and tested negative for mycoplasma contamination using a mycoplasma detection kit through routine screenings. Table A1. Tumor cells and cell culture medium used in the present disclosure
IC50 values of the compounds of the present disclosure (including the compounds in Table 1, and compounds of examples) were measured using the Meilun Cell Counting Kit-8 kit from Dalian Meilun Biotech Co., Ltd. Assay details are as follows: tumor cells were seeded in a 96-well plate at a density listed in Table A2. After 24h, 100 µL of the inoculated cells were treated with 0.5µL of the compounds of the present disclosure (including the compounds in Tables 1 and 2, and compounds of examples) at 10 different successively decreasing concentrations (starting at the highest concentration of 10µM; 5-fold serial dilutions). After the cells were treated with the compounds of the present disclosure for a period of time, the cell viability detection reagent was added to the culture medium for cell viability assessment according to the instructions provided with the CCK-8 kit. […] The growth inhibition of the compounds of the present disclosure on cells was plotted by Prism Graphpad software, and the IC50 values of the compounds of the present disclosure were calculated therefrom. […] Seeding protocol and treatment time for tumor cells

Compound	pIC50 (MCF7)	inhibition at 0.5 µM [1]	inhibition at 2 µM [1]	pIC50 (CCRF-CEM)	Degradation of substrate protein CDK4 (substrate protein remaining %) (CDK4)	Degradation of substrate protein CDK6 (substrate protein remaining %) (CDK6)
CC(=O)c1c(C)c2cnc(Nc3ccc(N4CCN(Cc5ccc(N6CCC(=O)NC6=O)cn5)CC4)cn3)nc2n(C2CCCC2)c1=O [GT-06578, 1-(6-((4-(6-((6-acetyl-8-cyclopentyl-5-methyl-7-oxo-7,8-dihydropyrido[2,3-d]pyrimidin-2-yl)amino)pyridin-3-yl)piperazin-1-yl)methyl)pyridin-3-yl)dihydropyrimidine-2,4(1H,3H)-dione]	6.00 to 6.30				B (B is defined as substrate protein remaining % > 80%)	A (A is defined as 0% ≤ substrate protein remaining % ≤ 80%)
CC(=O)c1c(C)c2cnc(Nc3ccc(N4CCN(Cc5cccc(NC6CCC(=O)NC6=O)c5)CC4)cn3)nc2n(C2CCCC2)c1=O (stereo not shown) [GT-06580, 3-((3-((4-(6-((6-acetyl-8-cyclopentyl-5-methyl-7-oxo-7,8-dihydropyrido[2,3-d]pyrimidin-2-yl)amino)pyridin-3-yl)piperazin-1-yl)methyl)phenyl)amino)pip eridine-2,6-dione]	6.00 to 6.30				B (B is defined as substrate protein remaining % > 80%)	A (A is defined as 0% ≤ substrate protein remaining % ≤ 80%)
CC(=O)c1c(C)c2cnc(Nc3ccc(N4CCN(Cc5ccc(C6CCC(=O)NC6=O)cc5)CC4)cn3)nc2n(C2CCCC2)c1=O (stereo not shown) [GT-06575, 3-(4-((4-(6-((6-acetyl-8-cyclopentyl-5-methyl-7-oxo-7,8-dihydropyrido[2,3-d]pyrimidin-2-yl)amino)pyridin-3-yl)piperazin-1-yl)methyl)phenyl)piperidine-2,6-dione]	6.30 to 7.00				A (A is defined as 0% ≤ substrate protein remaining % ≤ 80%)	A (A is defined as 0% ≤ substrate protein remaining % ≤ 80%)
CN(C)C(=O)c1cc2cnc(Nc3ccc(N4CCN(Cc5ccnc(N6CCC(=O)NC6=O)c5)CC4)cn3)nc2n1C1CCCC1 [GT-07475, 7-cyclopentyl-2-((5-(4-((2-(2,4-dioxotetrahydropyrimidin-1(2H)-yl)pyridin-4-yl)methyl)piperazin-1-yl)pyridin-2-yl)amino)-N,N-dimethyl-7H-pyrrolo[2,3-d]pyrimidine-6-carboxamide]				6.00 to 6.30	A (A is defined as 0% ≤ substrate protein remaining % ≤ 80%)	A (A is defined as 0% ≤ substrate protein remaining % ≤ 80%)
CC(=O)c1c(C)c2cnc(Nc3ccc(N4CCN(Cc5cc(N6CCC(=O)NC6=O)cnc5F)CC4)cn3)nc2n(C2CCCC2)c1=O [GT-07832, 1-(5-((4-(6-((6-acetyl-8-cyclopentyl-5-methyl-7-oxo-7,8-dihydropyrido[2,3-d]pyrimidin-2-yl)amino)pyridin-3-yl)piperazin-1-yl)methyl)-6-fluoropyridin-3-yl)dihydropyrimidine-2,4(1H,3H)-dione]					A (A is defined as 0% ≤ substrate protein remaining % ≤ 80%)	A (A is defined as 0% ≤ substrate protein remaining % ≤ 80%)
CN(C)C(=O)c1cc2cnc(Nc3ccc(N4CCC(N(C)Cc5cccc(N6CCC(=O)NC6=O)c5)CC4)cn3)nc2n1C1CCCC1 [GT-06492, 7-cyclopentyl-2-((5-(4-((3-(2,4-dioxotetrahydropyrimidin-1(2H)-yl)benzyl)(methyl)amino)piperidin-1-yl)pyridin-2-yl)amino)-N,N-dimethyl-7H-pyrrolo[2,3-d]pyrimidine-6-carboxamide]					B (B is defined as substrate protein remaining % > 80%)	A (A is defined as 0% ≤ substrate protein remaining % ≤ 80%)
CN(C)C(=O)c1cc2cnc(Nc3ccc(N4CCN(Cc5ccc(N6CCC(=O)NC6=O)cn5)CC4)cn3)nc2n1C1CCCC1 [GT-06342, 7-cyclopentyl-2-((5-(4-((5-(2,4-dioxotetrahydropyrimidin-1(2H)-yl)pyridin-2-yl)methyl)piperazin-1-yl)pyridin-2-yl)amino)-N,N-dimethyl-7H-pyrrolo[2,3-d]pyrimidine-6-carboxamide]					A (A is defined as 0% ≤ substrate protein remaining % ≤ 80%)	A (A is defined as 0% ≤ substrate protein remaining % ≤ 80%)

The next lines start with results.

pIC50 (MCF7)	inhibition at 0.5 µM [1]	inhibition at 2 µM [1]	pIC50 (CCRF-CEM)	Compound	Degradation of substrate protein CDK4 (substrate protein remaining %) (CDK4)	Degradation of substrate protein CDK6 (substrate protein remaining %) (CDK6)
	30 to 40%	60 to 80%		CN(C)C(=O)c1cc2cnc(Nc3ccc(N4CCN(Cc5cc(N6CCC(=O)NC6=O)cnc5F)CC4)cn3)nc2n1C1CCCC1 [GT-07830, 7-cyclopentyl-2-((5-(4-((5-(2,4-dioxotetrahydropyrimidin-1(2H)-yl)-2-fluoropyridin-3-yl)methyl)piperazin-1-yl)pyridin-2-yl)amino)-N,N-dimethyl-7H-pyrrolo[2,3-d]pyrimidine-6-carboxamide]	A (A is defined as 0% ≤ substrate protein remaining % ≤ 80%)	A (A is defined as 0% ≤ substrate protein remaining % ≤ 80%)
	53 to 60%	80 to 100%		CN(C)C(=O)c1cc2cnc(Nc3ccc(N4CCN(Cc5cncc(C6CCC(=O)NC6=O)c5)CC4)cn3)nc2n1C1CCCC1 (stereo not shown) [GT-07479, 7-cyclopentyl-2-((5-(4-((5-(2,6-dioxopiperidin-3-yl)pyridin-3-yl)methyl)piperazin-1-yl)pyridin-2-yl)amino)-N,N-dimethyl-7H-pyrrolo[2,3-d]pyrimidine-6-carboxamide]	A (A is defined as 0% ≤ substrate protein remaining % ≤ 80%)	A (A is defined as 0% ≤ substrate protein remaining % ≤ 80%)
	30 to 40%	60 to 80%		CN(C)C(=O)c1cc2cnc(Nc3ccc(N4CCN(Cc5cncc(N6CCC(=O)NC6=O)c5)CC4)cn3)nc2n1C1CCCC1 [GT-07476, 7-cyclopentyl-2-((5-(4-((5-(2,4-dioxotetrahydropyrimidin-1(2H)-yl)pyridin-3-yl)methyl)piperazin-1-yl)pyridin-2-yl)amino)-N,N-dimethyl-7H-pyrrolo[2,3-d]pyrimidine-6-carboxamide]	A (A is defined as 0% ≤ substrate protein remaining % ≤ 80%)	A (A is defined as 0% ≤ substrate protein remaining % ≤ 80%)
	20 to 30%	60 to 80%		CN(C)C(=O)c1cc2cnc(Nc3ccc(N4CCN(Cc5ccc(C6CCC(=O)NC6=O)cn5)CC4)cn3)nc2n1C1CCCC1 (stereo not shown) [GT-07477, 7-cyclopentyl-2-((5-(4-((5-(2,6-dioxopiperidin-3-yl)pyridin-2-yl)methyl)piperazin-1-yl)pyridin-2-yl)amino)-N,N-dimethyl-7H-pyrrolo[2,3-d]pyrimidine-6-carboxamide]	A (A is defined as 0% ≤ substrate protein remaining % ≤ 80%)	A (A is defined as 0% ≤ substrate protein remaining % ≤ 80%)
